# Reference: paper PMC12693327, “SERAAK2 as a Serotonin Receptor Ligand: Structural and Pharmacological In Vitro and In Vivo Evaluation” (Molecules, 2025)
# Entries after “also recorded” stand apart in the source; their conditions may differ.
# Key:
# mice [1] = assay: Motor coordination, rotarod test; type: in vivo; conditions: for Motor coordination (rotarod, chimney): rotarod and chimney
# Procedure: (§1) The investigated compound (SER2AAK2) was bought from Enamine (purity over 95%) and in all tests was administered intraperitoneally (i.p.), spread in a drop of Tween 80, and diluted with an aqueous solution of 0.5% methylcellulose (tylose) and injected 60 min before the tests in a volume of 10 mL/kg. Control groups received tylose injections of the same volume and via the same route of administration.
# (§2) The effects of the SER2AAK2 compound were also measured in the rotarod and chimney tests. In the rotarod test, mice were evaluated for their ability to maintain balance on a constantly rotating rod (18 rpm) for 1 min. The chimney test involved placing a mouse in a horizontal polymer tube (3 cm diameter, 25 cm length). Once the mouse reached the far end, the tube was positioned vertically, requiring the animal to climb backwards to exit. Right motor coordination was defined as exiting the chimney within 60 s. Prior to testing, mice underwent a 3-day training. Only those animals that were able to stay on the rotating rod or leave the chimney within the required time were included in the study.
# mice [2] = assay: Motor coordination, chimney test; type: in vivo; conditions: 7.5 mg/kg i.p., 60 min before test, similar to control
# Procedure: as §1, §2
# mice [3] = assay: Spontaneous locomotor activity; type: in vivo; conditions: 60 min before test
# Procedure: as §1
# Locomotor activity of the mice was assessed using the Opto-Varimex-4 Auto-Track system (Columbus Instruments, OH, USA). Each mouse was placed individually in a testing cage for 25 min—5 min for acclimatization, followed by 20 min of activity recording. (6a) The total distance traveled (in centimeters) was measured. Cages were cleaned with 10% ethanol between sessions.
# CYP3A4 = molecular target: T1, CYP3A4 (Homo sapiens, UniProt P08684); assay: CYP3A4 luminescent luciferase-based assay (Glo kit); type: in vitro ADME; conditions: mean ± SEM, two experiments, n = 3 each, read-out: CYP3A4 Activity Inhibition, Evaluated at the Concentration of 10 µM [% of Inhibition ± SEM]
# T1 construct: purchased Promega
# T1 sequence (P08684 whole entry): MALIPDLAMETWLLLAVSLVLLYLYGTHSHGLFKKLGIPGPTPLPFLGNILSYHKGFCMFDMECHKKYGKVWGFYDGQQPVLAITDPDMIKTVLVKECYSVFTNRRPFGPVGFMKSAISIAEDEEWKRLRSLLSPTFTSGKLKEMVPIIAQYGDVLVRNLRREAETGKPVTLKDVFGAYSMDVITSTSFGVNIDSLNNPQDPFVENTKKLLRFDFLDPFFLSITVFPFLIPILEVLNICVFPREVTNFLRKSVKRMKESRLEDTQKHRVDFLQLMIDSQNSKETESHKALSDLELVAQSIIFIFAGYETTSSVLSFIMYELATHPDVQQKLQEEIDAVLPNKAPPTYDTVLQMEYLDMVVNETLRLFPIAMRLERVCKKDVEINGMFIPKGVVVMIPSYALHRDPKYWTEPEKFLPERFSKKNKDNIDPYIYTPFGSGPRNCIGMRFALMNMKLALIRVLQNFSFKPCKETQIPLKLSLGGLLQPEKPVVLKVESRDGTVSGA
# Procedure: The effect of SERAAK2 on the activity of the cytochrome P450 isoforms CYP3A4 and CYP2D6 was tested using commercial luminescence assays (Glo kits bought from Promega, Medison, WI, USA). The experiment was performed twice with triplicate samples, following the manufacturer’s guidelines and established procedures.
# [4] = PAMPA membrane permeability; type: in vitro ADME; conditions: 100 µM in PBS pH 7.4, 5 h
# Procedure: In this study, PAMPA was employed to evaluate the passive diffusion of SERAAK2 through a lipid-infused artificial membrane.
# The membrane permeability assay was conducted employing the pre-coated PAMPA Plate System Gentest from Corning (Tewksbury, MA, USA), following the manufacturer’s provided instructions. SERAAK2, along with reference compounds, were prepared in PBS buffer at a pH of 7.4 to reach a final concentration of 100 µM, and these solutions were loaded onto the donor plate of the 96-well system. […] The permeability coefficient (Pe, expressed in cm/s) was subsequently derived by applying the calculation formula supplied by the manufacturer of the PAMPA system.
# SH-SY5Y cells = assay: MTS cytotoxicity assay in SH-SY5Y cells; type: cell-based, human; conditions: 72 h
# Procedure: The cytotoxic potential of SERAAK2 was evaluated in two human-derived cell lines chosen for their physiological relevance: HepG2 (hepatocellular carcinoma) and SH-SY5Y (neuroblastoma). […] It is particularly noteworthy that the use of the SERAAK2 compound at a concentration of 30 µM reduces the number of viable cells below the level of the positive control (doxorubicin) at the same concentration (Table 3). […] Under the experimental conditions used, after 72 h of incubation, a fraction of doxorubicin-treated cells remains metabolically active and generates a low signal in the MTS assay. The enhanced signal reduction observed in the MTS assay for the tested compound, compared to doxorubicin, indicates strong cytotoxic activity leading to necrosis of the entire cell population.
# An assessment of the cytotoxic potential of SERAAK2 was carried out utilizing the colorimetric MTS assay. This investigation was executed on both HepG2 and SH-SY5Y cell lines, adhering to an identical procedure. The cell lines, sourced from the American Type Culture Collection (Manassas, VA, USA), were cultured under standard conditions (5% CO2, 37 °C) in DMEM/F12 medium (#31330-038, ThermoFisher Scientific, Waltham, MA, USA). The medium was supplemented with 10% Fetal Bovine Serum (FBS, #A5256801, ThermoFisher Scientific) and a Penicillin–Streptomycin solution (#15140-122, ThermoFisher Scientific) until their use in the study. Cells within passage numbers 15 to 25 were plated in 96-well plates at a density of 5000 cells per well in 200 μL of medium and allowed to adhere during a 24 h incubation at 37 °C with 5% CO2. […] The plates were then subsequently returned to the 37 °C incubator, after which absorbance was recorded with a Spark microplate reader; this measurement occurred after 1 h for the HepG2 line and 3 h for the SH-SY5Y line. The ultimate cell viability percentage was determined by comparing results to the control wells, which represented 100% viability, and the wells treated with 10 μM doxorubicin, which were defined as 0% viability. […]
smiles,measurement,setting,value
OC(CNCCc1c[nH]c2ccccc12)COc1ccc(Oc2ccccc2)cc1 (stereo not drawn) [SERAAK2],time held on rotating rod,"mice [1]; mice, 7.5 mg/kg i.p., 60 min before test, test length 1 min",about 60 s
same,"Motor coordination (rotarod, chimney)","mice [1]; mice, 7.5 mg/kg",inactive; also recorded: no effect
same,"Motor coordination (rotarod, chimney)","mice [1]; mice, 15–60 mg/kg",impairment
same,motor coordination in the rotarod test,"mice [1]; mice, 60, 30 and 15 mg/kg i.p., 60 min before test",significant disturbances in motor coordination
same,time to leave the chimney,mice [2],about 13 s
same,Spontaneous locomotor activity,"mice [3]; mice, 7.5 mg/kg i.p., 7.5 mg/kg",inactive; also recorded: no effect
same,Spontaneous locomotor activity,"mice [3]; mice, 60, 30 and 15 mg/kg i.p., 20 min recording",statistically significant reduction in locomotor activity; also recorded: reduced activity
same,inhibition at 10 µM,CYP3A4,0%
same,Pe ± SD,[4],1.1 ×10⁻⁶ cm/s
same,"Papp at 5 h, 100 µM",[4]; read-out: Pe ± SD,1.1 ± 0.35 ×10⁻⁶ cm/s
same,cytotoxic effects in SH-SY5Y cells,SH-SY5Y cells; 0.3 µM,no cytotoxic effects
same,Percentage Reduction in the Number of Viable SH-SY5Y Cells [Mean ± SEM],SH-SY5Y cells; 30 µM,108 ± 1%
